Results: patent US8653100B2 (AbbVie Inc., priority 2008, dated 2014)
Structures can show the parent of a compound that is named as a salt.

Molecular target: human GlyT1c transporter (Homo sapiens (Human), UniProt P48067)
Assay: Radioligand binding assay using recombinant CHO cell membranes expressing human GlyT1
Details: examples 88-204, radioligand not specified by footnote, read-out: radioligand binding Kiapp
Method: 2. Radioligand binding assays using recombinant CHO cell membranes expressing human GlyT1:
Radioligand binding to human GlyT1c transporter-expressing membranes was carried out as described in Mezler et al., Molecular Pharmacology 74:1705-1715, 2008.
More specifically, [^3H]-(R)-NPTS radioligand binding to human GlyT1c transporter-expressing membranes was measured in duplicate in a total volume of 200 μl in 96-well plates. To 100 μl of membrane suspension (yielding a final membrane protein concentration of 50 μg/ml) in assay buffer (120 mM NaCl, 2 mM KCl, 10 mM Hepes, 1 mM MgCl2, 1 mM CaCl2, pH 7.5) […] of [^3H]-(R)-NPTS (0.5 nM final) were added in assay buffer. For competition experiments 10 μl of buffer or unlabeled compound solution obtained from dilution series of test compounds in DMSO followed. An intermediate 1:10 dilution in assay buffer yielded a final DMSO concentration of 1%. Non-specific binding was determined in the presence of 10 μM Org24598 (or its racemate Org24461) for [^3H]-(R)-NPTS. After incubation at room temperature for 1 h, the incubation mixture was harvested (Tomtec Mach III U Harvester) through 96-well GF/B filter plates (PerkinElmer), presoaked for 1 h with 40 μl per well of 0.1% polyethylene-imine (PEI). After washing twice with ice-cold 50 mM Tris-HCl pH 7.4 buffer, drying and addition of 35 μl scintillator (BetaplateScint, PerkinElmer) per well followed. The radioactivity was determined by liquid scintillation spectrometry in a MicroBeta (PerkinElmer) plate counter.
Data analysis: For binding of [^3H]-(R)-NPTS to cell membranes, the calculation of Kd and Bmax values from the saturation binding assays and the IC50 values from the displacement binding was performed by iterative non-linear regression analysis adapted from the ‘Ligand’ program (Munson and Rodbard, 1980). Radioligand displacement curves in absence or in presence of increasing concentrations of tested compounds were fitted using a one-site fit and the apparent Ki values were calculated from the IC50 values using the Cheng-Prusoff equation (Cheng and Prusoff 1973).

Chain of human GlyT1c transporter (P48067 whole entry): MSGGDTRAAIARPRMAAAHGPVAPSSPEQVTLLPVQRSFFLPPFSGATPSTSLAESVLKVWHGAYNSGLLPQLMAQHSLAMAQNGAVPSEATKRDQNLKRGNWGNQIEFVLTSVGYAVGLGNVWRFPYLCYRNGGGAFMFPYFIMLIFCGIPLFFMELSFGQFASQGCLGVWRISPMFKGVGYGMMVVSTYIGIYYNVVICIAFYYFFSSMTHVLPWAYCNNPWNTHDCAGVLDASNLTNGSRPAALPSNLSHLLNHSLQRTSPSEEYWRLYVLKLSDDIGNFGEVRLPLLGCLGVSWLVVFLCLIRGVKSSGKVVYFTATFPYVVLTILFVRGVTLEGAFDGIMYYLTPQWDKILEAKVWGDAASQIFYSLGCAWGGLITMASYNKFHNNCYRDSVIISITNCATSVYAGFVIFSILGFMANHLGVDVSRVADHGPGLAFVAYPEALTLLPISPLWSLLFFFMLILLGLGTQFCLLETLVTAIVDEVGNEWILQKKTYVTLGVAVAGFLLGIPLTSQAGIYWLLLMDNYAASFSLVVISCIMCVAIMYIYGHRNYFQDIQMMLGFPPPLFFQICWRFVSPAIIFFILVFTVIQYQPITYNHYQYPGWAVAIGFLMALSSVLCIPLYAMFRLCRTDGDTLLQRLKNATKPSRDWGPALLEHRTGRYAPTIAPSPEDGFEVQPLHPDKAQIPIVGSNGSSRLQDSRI

Row | Ki [nM] | SMILES
1 | ≤ 100 | C/C=C/S(=O)(=O)NCCOc1ccc2c(c1)C(C1(c3ccc(Cl)cc3)CCC1)NCC2 (centres unmarked) [Example 88, (1E)-N-[2-({1-[1-(4-Chlorophenyl)cyclobutyl]-1,2,3,4-tetrahydroisoquinolin-7-yl}oxy)ethyl]prop-1-ene-1-sulfonamide hydrochloride]
2 | ≤ 100 | O=S(=O)(NCCOc1ccc2c(c1)C(C1(c3ccc(Cl)cc3)CCC1)NCC2)C1CCNC1 (single isomer, unassigned) [Example 151, N-[2-({1-[1-(4-Chlorophenyl)cyclobutyl]-1,2,3,4-tetrahydroisoquinolin-7-yl}oxy)ethyl]pyrrolidine-3-sulfonamide dihydrochloride]
3 | ≤ 10000 | O=S(=O)(NCCOc1ccc2c(c1)C(C1(c3ccc(Cl)cc3)CCC1)NCC2)C1CCNC1 (single isomer, unassigned) [Example 175, N-[2-({1-[1-(4-Chlorophenyl)cyclobutyl]-1,2,3,4-tetrahydroisoquinolin-7-yl}oxy)ethyl]pyrrolidine-3-sulfonamide dihydrochloride]
4 | ≤ 10000 | O=S(=O)(NCCOc1ccc2c(c1)C(C1(c3ccc(Cl)cc3)CCC1)NCC2)C1CCN(Cc2ccccc2)CC1 (centres unmarked) [Example 177, 1-Benzyl-N-[2-({1-[1-(4-chlorophenyl)cyclobutyl]-1,2,3,4-tetrahydroisoquinolin-7-yl}oxy)ethyl]piperidine-4-sulfonamide hydrochloride]
5 | ≤ 10000 | CNCCCS(=O)(=O)NCCOc1ccc2c(c1)C(C1(c3ccc(Cl)cc3)CCC1)NCC2 (centres unmarked) [Example 178, N-[2-({1-[1-(4-Chlorophenyl)cyclobutyl]-1,2,3,4-tetrahydroisoquinolin-7-yl}oxy)ethyl]-3-(methylamino)propane-1-sulfonamide (2E)-but-2-enedioate]
6 | ≤ 1000 | O=S(=O)(NCCOc1ccc2c(c1)C(C1(c3ccc(Cl)cc3)CCC1)NCC2)C1CNC1 (centres unmarked) [Example 166, N-[2-({1-[1-(4-Chlorophenyl)cyclobutyl]-1,2,3,4-tetrahydroisoquinolin-7-yl}oxy)ethyl]azetidine-3-sulfonamide (2E)-but-2-enedioate]
7 | ≤ 10000 | NCCCNS(=O)(=O)CCCOc1ccc2c(c1)C(C1(c3ccc(Cl)cc3)CCC1)NCC2 (centres unmarked) [Example 137, N-(3-Aminopropyl)-3-({1-[1-(4-chlorophenyl)cyclobutyl]-1,2,3,4-tetrahydroisoquinolin-7-yl}oxy)propane-1-sulfonamide dihydrochloride]
8 | ≤ 10000 | O=S(=O)(NCCOc1ccc2c(c1)C(C1(c3ccc(Cl)cc3)CCC1)NCC2)C1CCNCC1 (centres unmarked) [Example 190, N-[2-({1-[1-(4-Chlorophenyl)cyclobutyl]-1,2,3,4-tetrahydroisoquinolin-7-yl}oxy)ethyl]piperidine-4-sulfonamide dihydrochloride]
9 | ≤ 100 | O=S(=O)(NCCOc1ccc2c(c1)C(C1(c3ccc(Cl)cc3)CCC1)NCC2)C1CCCNC1 (single isomer, unassigned) [Example 160, N-[2-({1-[1-(4-Chlorophenyl)cyclobutyl]-1,2,3,4-tetrahydroisoquinolin-7-yl}oxy)ethyl]piperidine-3-sulfonamide dihydrochloride]
10 | ≤ 100 | NCCS(=O)(=O)NCCOc1ccc2c(c1)[C@H](C1(c3ccc(Cl)cc3)CCC1)NCC2 [Example 146, 2-Amino-N-[2-({(1S)-1-[1-(4-chlorophenyl)cyclobutyl]-1,2,3,4-tetrahydroisoquinolin-7-yl}oxy)ethyl]ethanesulfonamide dihydrochloride]

The remaining lines, values behind:

Row | SMILES | Ki [nM]
11 | N#Cc1ccc2c(c1)C(C1(c3ccc(Cl)cc3)CCC1)NCC2 (centres unmarked) [Example 92, 1-[1-(4-Chlorophenyl)cyclobutyl]-1,2,3,4-tetrahydroisoquinoline-7-carbonitrile hydrochloride] | ≤ 100
12 | Nc1ccc(S(=O)(=O)NCCOc2ccc3c(c2)C(C2(c4ccc(Cl)cc4)CCC2)NCC3)cc1 (centres unmarked) [Example 147, 4-Amino-N-[2-({1-[1-(4-chlorophenyl)cyclobutyl]-1,2,3,4-tetrahydroisoquinolin-7-yl}oxy)ethyl]benzenesulfonamide dihydrochloride] | ≤ 100
13 | CC(C)(c1ccc(Cl)cc1)C1NCCc2ccc(C#N)cc21 (centres unmarked) [Example 107, 1-[2-(4-Chlorophenyl)propan-2-yl]-1,2,3,4-tetrahydroisoquinoline-7-carbonitrile hydrochloride] | ≤ 1000
14 | CCCS(=O)(=O)Oc1ccc2c(c1)C(C1(c3cccc(F)c3)CCC1)NCC2 (centres unmarked) [Example 120, 1-[1-(3-Fluorophenyl)cyclobutyl]-1,2,3,4-tetrahydroisoquinolin-7-yl propane-1-sulfonate hydrochloride] | ≤ 10000
15 | Cn1cnc(S(=O)(=O)NCc2ccc3c(c2)C(C(C)(C)c2ccc(Cl)cc2)NCC3)c1 (centres unmarked) [Example 102, N-({1-[2-(4-Chlorophenyl)propan-2-yl]-1,2,3,4-tetrahydroisoquinolin-7-yl}methyl)-1-methyl-1H-imidazole-4-sulfonamide hydrochloride] | ≤ 100
16 | O=S(=O)(Nc1cccnc1Oc1ccc2c(c1)C(C1(c3ccc(Cl)cc3)CCC1)NCC2)c1cccnc1 (centres unmarked) [Example 136, N-[2-({1-[1-(4-Chlorophenyl)cyclobutyl]-1,2,3,4-tetrahydroisoquinolin-7-yl}oxy)pyridin-3-yl]pyridine-3-sulfonamide trihydrochloride] | ≤ 10000
17 | CCCS(=O)(=O)NCCOc1ccc2c(c1)C(C(C)(C)c1ccc(Cl)cc1)NCC2 (centres unmarked) [Example 139, N-[2-({1-[2-(4-Chlorophenyl)propan-2-yl]-1,2,3,4-tetrahydroisoquinolin-7-yl}oxy)ethyl]propane-1-sulfonamide] | ≤ 100
18 | NC(=O)Nc1ccc(S(=O)(=O)NCCOc2ccc3c(c2)C(C2(c4ccc(Cl)cc4)CCC2)NCC3)cc1 (centres unmarked) [Example 191, 4-(Carbamoylamino)-N-[2-({1-[1-(4-chlorophenyl)cyclobutyl]-1,2,3,4-tetrahydroisoquinolin-7-yl}oxy)ethyl]benzenesulfonamide hydrochloride] | ≤ 10000
19 | Cn1cc(S(=O)(=O)NCCOc2ccc3c(c2)C(C2(c4ccc(Cl)cc4)CC(F)(F)C2)NCC3)cn1 (single isomer, unassigned) [Example 138, N-[2-({1-[1-(4-Chlorophenyl)-3,3-difluorocyclobutyl]-1,2,3,4-tetrahydroisoquinolin-7-yl}oxy)ethyl]-1-methyl-1H-pyrazole-4-sulfonamide] | ≤ 100
20 | CCCS(=O)(=O)NCc1ccc2c(c1)C(C1(c3ccc(Cl)cc3)CCC1)NCC2 (centres unmarked) [Example 90, N-({1-[1-(4-Chlorophenyl)cyclobutyl]-1,2,3,4-tetrahydroisoquinolin-7-yl}methyl)propane-1-sulfonamide hydrochloride] | ≤ 100
21 | Nc1cccc(S(=O)(=O)NCCOc2ccc3c(c2)C(C2(c4ccc(Cl)cc4)CCC2)NCC3)c1 (centres unmarked) [Example 157, 3-Amino-N-[2-({1-[1-(4-chlorophenyl)cyclobutyl]-1,2,3,4-tetrahydroisoquinolin-7-yl}oxy)ethyl]benzenesulfonamide dihydrochloride] | ≤ 100
22 | O=S(=O)(CCCF)NCc1ccc2c(c1)C(C1(c3ccc(Cl)cc3)CCC1)NCC2 (centres unmarked) [Example 94, N-({1-[1-(4-Chlorophenyl)cyclobutyl]-1,2,3,4-tetrahydroisoquinolin-7-yl}methyl)-3-fluoropropane-1-sulfonamide hydrochloride] | ≤ 100
23 | CN1CCOc2cc(S(=O)(=O)NCCOc3ccc4c(c3)C(C3(c5ccc(Cl)cc5)CCC3)NCC4)cnc21 (centres unmarked) [Example 185, N-[2-({1-[1-(4-Chlorophenyl)cyclobutyl]-1,2,3,4-tetrahydroisoquinolin-7-yl}oxy)ethyl]-4-methyl-3,4-dihydro-2H-pyrido[3,2-b][1,4]oxazine-7-sulfonamide hydrochloride] | ≤ 10000
24 | O=S(=O)(NCCOc1ccc2c(c1)C(C1(c3ccc(Cl)cc3)CCC1)NCC2)c1ccc(CCCF)cc1 (centres unmarked) [Example 114, N-[2-({1-[1-(4-Chlorophenyl)cyclobutyl]-1,2,3,4-tetrahydroisoquinolin-7-yl}oxy)ethyl]-4-(3-fluoropropyl)benzenesulfonamide hydrochloride] | ≤ 1000
25 | O=S(=O)(Nc1ccc(Oc2ccc3c(c2)C(C2(c4ccc(Cl)cc4)CCC2)NCC3)cc1)c1cccs1 (centres unmarked) [Example 115, N-[4-({1-[1-(4-Chlorophenyl)cyclobutyl]-1,2,3,4-tetrahydroisoquinolin-7-yl}oxy)phenyl]thiophene-2-sulfonamide hydrochloride] | ≤ 1000
26 | O=S(=O)(NCCOc1ccc2c(c1)C(C1(c3ccc(Cl)cc3)CCC1)NCC2)c1ccc(Oc2ccccc2)nc1 (centres unmarked) [Example 173, N-[2-({1-[1-(4-Chlorophenyl)cyclobutyl]-1,2,3,4-tetrahydroisoquinolin-7-yl}oxy)ethyl]-6-phenoxypyridine-3-sulfonamide hydrochloride] | ≤ 10000
